Active and inactive are the calls of the source. No cut-off for these calls is given here.

This is an account of results in ChEMBL document CHEMBL5252544, “Synthesis and evaluation of biological activities of vibsanin A analogs” (Bioorg Med Chem Lett, 2017).

Experiment [1] concerns the target T1, Protein kinase C (PKC) (Homo sapiens) (UniProt O94806+P41743+P17252+P05129+Q05655+P05771+Q05513+Q02156+P24723+Q15139+Q04759). The experiment in a line: Activation of PKC in human THP-1 cells assessed as increase in ERK phosphorylation at 0.1 to 10 uM incubated for 15 mins by immunoblotting analysis. It is filed as cell-based. To be noted: dose 0.1-10 µM.
The test system of experiment [2] is THP-1. The experiment in a line: Cytotoxicity against human THP-1 cells by trypan blue staining based microscopic analysis. In kind it is functional, cell-based.
Experiment [3] relates to THP-1. The experiment in a line: Induction of cell differentiation in human THP-1 cells. In kind it is functional, cell-based.
Experiment [4] concerns THP-1. In words: Induction of monocytic differentiation in human THP-1 cells assessed as decrease in nuclear to cytoplasmic ratio at 10 uM measured after 72 hrs by giemsa staining based microscopic analysis. It is filed as functional, cell-based.
The subject of experiment [5] is THP-1. In words: Induction of monocytic differentiation in human THP-1 cells assessed as increase in cell size at 10 uM measured after 72 hrs by giemsa staining based microscopic analysis. In kind it is functional.
Experiment [6] deals with T1, Protein kinase C (PKC) (Homo sapiens). The experiment in a line: Activation of PKC in human THP-1 cells assessed as increase in ERK phosphorylation incubated for 15 mins by immunoblotting analysis. It is filed as cell-based. The note with it: filed as activator, dose 0.1-10 µM. For orientation: A western blot detects proteins with antibodies after separation by electrophoresis.

Experiment [7] relates to THP-1. The experiment in a line: Induction of monocytic differentiation in human THP-1 cells assessed as high vacuolated cytoplasm at 10 uM measured after 72 hrs by giemsa staining based microscopic analysis. In kind it is functional, cell-based.
Experiment [8] deals with HL-60. The experiment in a line: Activation of ERK in human HL-60 cells assessed as increase in cell differentiation. In kind it is cell-based. The note with it: filed as activator.
In experiment [9] the test system is THP-1. The experiment in a line: Induction of morphological changes in human THP-1 cells assessed as loss of cell circularity at 10 uM measured after 72 hrs by microscopic analysis. It is filed as functional, cell-based.
Experiment [10] deals with T1, Protein kinase C (PKC) (Homo sapiens). The experiment in a line: Activation of PKC in human THP-1 cells assessed as increase in ERK phosphorylation at 10 uM pretreated with PMA for 24 hrs followed by compound addition and measured after 15 mins by immunoblotting analysis. It is filed as cell-based.
For experiment [11] the target is unchanged. The experiment in a line: Activation of PKC in human THP-1 cells assessed as increase in ERK phosphorylation at 100 nM incubated for 15 mins by immunoblotting analysis. In kind it is cell-based. To be noted: filed as activator.

In the case of `C=C(I)CC[C@H]1O[C@@]1(C)[C@@H](/C=C/[C@](C)(CC=O)CCC=C(C)C)OC(=O)C=C(C)C`, in [1], the outcome was inactive.

For the compound `C=C1CC[C@H]2O[C@@]2(C)[C@H](OC(=O)C=C(C)C)/C=C/[C@@](C)(CCC=C(C)C)CC1=O`, in experiment [2], the outcome was Active. The outcome in experiment [1] and in experiment [3] was inactive.

With `CC(C)=CCC[C@]1(C)/C=C/[C@@H](OC(=O)C=C(C)C)[C@]2(C)O[C@@H]2CC/C(CO)=C\C1`, the outcome in [4], in experiment [5], in experiment [7] and in experiment [8] was Active. Besides, the Activity result in experiment [6] was “Dose-Dependent Effect”.

Regarding `CC(C)=CCC[C@]1(C)/C=C/[C@@H](OC(=O)C=C(C)C)[C@]2(C)O[C@@H]2CC/C(C=O)=C\C1`, the result in experiment [4], in experiment [5], in experiment [7], in experiment [9] and in experiment [8] was Active. Also, the Activity entry in [6] was “Dose-Dependent Effect”. The outcome in experiment [10] was inactive.

Consider `CCCCCCCCCCCCCC(=O)O[C@@H]1[C@@H](C)[C@@]2(O)[C@@H](C=C(CO)C[C@]3(O)C(=O)C(C)=C[C@@H]23)[C@@H]2C(C)(C)[C@]12OC(C)=O`, for which the outcome in [11] was Active.

Consider `C=C1CC[C@H]2O[C@@]2(C)[C@H](OC(=O)C=C(C)C)/C=C/[C@@](C)(CCC=C(C)C)C[C@H]1O`, for which the result in experiment [1] was inactive.
